Measured values taken from patent publication US10138208B2, “Pyrazole derivatives as inhibitors of STAT3” (Mayo Foundation for Medical Education and Research, priority 2012, dated 2018).
“Also recorded” adds a separate entry of the source. Where two headings read alike, the source gives them in different places.

Experiments:
[1] = system: Normal Human Astrocytes (NHA)
Experimental: (§8) MTT Cell Proliferation Assay: Normal Human Astrocytes (Lonza) and human BT114 cells were plated at a density of 5000 cells per well in a 96-well tissue culture plate and incubated at 37° C. in the presence of 5% CO2 for 24 hours. Cell proliferation was determined using the CellTiter 96 Cell Proliferation Assay (Promega). After 24 hours cells were refed with normal media and MTT dye solution was added according to manufacturer's protocol. After 4 hours the reaction was stopped and absorbance was measured at 570 nm using a 96 well plate reader. […] (n=4).

[2] = system: glioblastoma (dBT114) cells; assay: IncuCyte cell proliferation assay (confluence), dBT114; assay type: cell-based, human; conditions: for dose-dependent inhibition of tumor cell proliferation: dBT114 cells (FIG. 4B); for effect on tumor cell growth kinetics (confluence): 50 μM (FIG. 4A)
Experimental: (§1) Pyrazole-based inhibitors were tested for efficacy in stopping tumor cell growth by performing cell proliferation assays in glioblastoma (dBT114), medulloblastoma (DAOY) and human colorectal carcinoma (HCT116) cells lines. Tumor cells were plated in 96-well plates and varying concentrations of inhibitors or DMSO were added initially or after several log-growths of tumor cells. Cell proliferation was determined by measuring cell confluency using an automated system. […] Similar effects were found on tumor cell proliferation in DAOY and HCT116 tumor cell lines (FIG. 5, again only showing C6 data). The effects of C6 and C3 on tumor cell proliferation were compared to other previously characterized inhibitors, specifically, WP1066 (a Jak2 inhibitor) and LLL-12 (a direct STAT3 inhibitor).
(§2) IncuCyte Cell Proliferation Assay: Cell proliferation assays were performed on dBT114, DAOY and HCT116 cells using an IncuCyte 2011A microplate imager (Essen BioScience, Ann Arbor, Mich.). Cells were plated at a density of 3000 cells per well in a 96 well plate and allowed to reach exponential growth phase prior to the addition of test compounds. Cell confluence was measured optically every three hours for up to 90 hours.

STAT3 [3] = molecular target: T1, STAT3 (Homo sapiens, UniProt P40763); assay: IL-6 induced STAT3 phosphorylation, Western blot / densitometry, dBT114 cells; assay type: cell-based; conditions: for inhibition of STAT3 phosphorylation: IL-6, 10 μM, Western blot (FIG. 1); for IC50: densitometry of western blots (FIG. 12), read-out: half-maximal inhibitory concentration (IC50) for blocking STAT3 activation; for dose dependence of inhibition of IL-6 induced STAT3 phosphorylation: increasing concentrations (FIG. 2)
T1 construct: To characterize changes in protein levels in whole cell lysates; endogenous in cells; host or cells: dBT114 (human GBM stem cell line)
Experimental: (§3) Compounds described herein can be tested for blocking the activation of phospho-STAT3 in vitro. […] The compounds were tested for inhibiting IL-6 induced phosphorylation of STAT3 in a human Glioblastoma GBM stem cell line (dBT114) and in the murine GBM cell line, GL261. IL-6 potently activates STAT3 phosphorylation in dBT114 cells but not as much in GL261 cells (FIG. 1), showing that GL261 cells have constitutively activated STAT3. […] A dose dependent decrease of IL-6 induced STAT3 phosphorylation in dBT114 cells using increasing concentrations of our compounds was observed, while no effect was seen on the levels of activated MAP kinase (FIG. 2).
Western Blot Analysis: Prior to analysis, cells were washed twice in cold phosphate buffered saline (PBS) and flash frozen in 200 μL of lysis buffer (50 mm/L NaCl, 50 mmol/L NaF, 50 mmol/L sodium pyrophosphate, 5 mmol/L EDTA, 5 mmol/L EGTA, 2 mmol/L Na3VO4, 1% Triton X-100, 0.5 mmol/L PMSF, […], 10 mmol/L HEPES, pH 7.4) in a ethanol/dry ice bath followed by scraping and a 5 second sonication to achieve a homogeneous solution. Sample protein concentrations were determined using the Bradford protein assay kit (Bio-Rad, Hercules, Calif.). To characterize changes in protein levels in whole cell lysates, 10 μg of total protein was size fractioned by 12% SDS-PAGE, transferred to nitrocellulose and stained with Ponceau-S stain to ensure equal protein loading. For Western blot analysis, membranes were incubated for 1 hour in blocking solution containing 1% dry milk in PBS-T, followed by an overnight incubation with either anti-Stat3 (Santa Cruz Biotechnology, Santa Cruz, Calif.,) or anti-Phospho-Stat3 (Santa Cruz). Nitrocellulose membranes were then incubated for 1 hour with horseradish peroxidase conjugated anti-IgG antibodies and visualized using Super Signal West Pico enhanced chemiluminescence detection (Thermo Scientific, Waltham, Mass.).
Western Densitometry—Determination of Half-Maximal Inhibitory Concentration for Activating STAT3: Dose Response Curves Half-maximal inhibitory concentrations for activating STAT3 (IC50 values) were calculated in BT114 cells from western blot data. The original western blot films were analyzed by densitometric analysis using the software program NIH Image (available at rsb.info.nih.gov/nih-image/). Standard dose-response curves were then created using the software program Prism 5.

Bcl-2 = assay: Downstream target of STAT3 transcription: Bcl-2 protein level in dBT114 cells; assay type: cell-based, human; conditions: various concentrations, 24 hours (FIG. 3, FIG. 10B)
Experimental: (§4) STAT3 is a transcription factor that leads to the activation of several pro-proliferation proteins including Cyclin D1 and numerous anti-apoptotic proteins such as Bcl-2. To analyze the effects on the downstream targets of STAT3 transcription, Cyclin D1 and Bcl-2 protein levels were monitored after exposure to the compounds described. dBT114 cells were treated with various concentrations of C3, C10 or DMSO for 24 hours.
(§5) Western Blot Analysis: Prior to analysis, cells were washed twice in cold phosphate buffered saline (PBS) and flash frozen in 200 μL of lysis buffer (50 mm/L NaCl, 50 mmol/L NaF, 50 mmol/L sodium pyrophosphate, 5 mmol/L EDTA, 5 mmol/L EGTA, 2 mmol/L Na3VO4, 1% Triton X-100, 0.5 mmol/L PMSF, […], 10 mmol/L HEPES, pH 7.4) in a ethanol/dry ice bath followed by scraping and a 5 second sonication to achieve a homogeneous solution. Sample protein concentrations were determined using the Bradford protein assay kit (Bio-Rad, Hercules, Calif.). To characterize changes in protein levels in whole cell lysates, 10 μg of total protein was size fractioned by 12% SDS-PAGE, transferred to nitrocellulose and stained with Ponceau-S stain to ensure equal protein loading. […]

MAP kinase = assay: Activated MAP kinase levels, Western blot, dBT114 cells; assay type: cell-based, human; conditions: increasing concentrations (FIG. 2)
Experimental: as §3
as §5, with “Calif.).” for “Calif.). To characterize changes in protein levels in whole cell lysates, 10 μg of total protein was size fractioned by 12% SDS-PAGE, transferred to nitrocellulose and stained with Ponceau-S stain to ensure equal protein loading.”

STAT3 [4] = molecular target: T2, STAT3 (Mus musculus, UniProt P42227); assay: STAT3 phosphorylation, Western blot, GL261 cells; assay type: cell-based, murine; conditions: GL261 cells (constitutively activated STAT3), 10 μM, Western blot (FIG. 1)
T2 construct: endogenous in cells; host or cells: GL261 (murine GBM cell line)
Experimental: as §3
as §5, with “Calif.).” for “Calif.). To characterize changes in protein levels in whole cell lysates, 10 μg of total protein was size fractioned by 12% SDS-PAGE, transferred to nitrocellulose and stained with Ponceau-S stain to ensure equal protein loading.”

PARP = PARP cleavage in dBT114 cells; assay type: cell-based, human; conditions: various concentrations, 24 hours (FIG. 3, FIG. 10B)
dBT114 cells = assay: Annexin V/propidium iodide apoptosis assay, dBT114; assay type: cell-based, human; conditions: for cell death through apoptosis (Annexin V/PI flow cytometry): dBT114 (BT114) cells, dose dependent, 24 hours
Experimental: (§6) The compounds were tested for their effect on tumor cell viability by initiating apoptosis through Annexin V-FITC cell staining analysis. […] Cell death was most pronounced in DAOY cells, followed by BT114 and then HCT cells (FIG. 8). […] The difference in cell death between cell lines may reflect differences in STAT3 signaling between tumor cell types.
(§7) Apoptosis Assay: Analysis of cell death through an apoptosis pathway was determined using an Annexin V apoptosis detection kit (Calbiochem, Rockland, Mass.). dBT114, DAOY and HCT116 cells were plated in 6-well tissue culture plates at a density of 500 cells per well and allowed to reach 60% confluence prior to addition of test compounds for 24 hours. Floating and adherent cells were harvested and stained with FITC-labeled Annexin V and propidium iodide for 15 minutes at room temperature in the dark. The cells were then washed with cold binding buffer and immediately analyzed by flow cytometry for cells staining positive for both Annexin V and propidium iodide.

DAOY cells [5] = assay: Annexin V/propidium iodide apoptosis assay, DAOY; assay type: cell-based; conditions: dose dependent, 24 hours
Experimental: as §6, §7

HCT116 cells = assay: Annexin V/propidium iodide apoptosis assay, HCT116; assay type: cell-based, human; conditions: HCT (HCT116) cells, dose dependent, 24 hours
Experimental: as §6, §7

[6] = system: Normal Human Astrocytes (NHA); assay: MTT cell proliferation assay, normal human astrocytes; conditions: 24 hour exposure, increasing concentrations, n=4 (FIG. 13)
Experimental: as §8

[7] = system: human colorectal carcinoma (HCT116) cells; assay: IncuCyte cell proliferation assay (confluence), HCT116; assay type: cell-based; conditions: human colorectal carcinoma cell line HCT116 (FIG. 5B)
Experimental: as §1, §2

[8] = system: medulloblastoma (DAOY) cells; assay: IncuCyte cell proliferation assay (confluence), DAOY; assay type: cell-based; conditions: DAOY cells (FIG. 5A)
Experimental: as §1, §2

DAOY cells [9] = assay: Uptake in living cells by confocal microscopy; assay type: cell-based; conditions: live DAOY cells, 50 μM, 30 minutes, confocal microscopy (FIG. 9)
Experimental: Further, live DAOY cells were treated with 50 μM C9 for 30 minutes and then evaluated its uptake with confocal microscopy.

Cyclin D1 = assay: Downstream target of STAT3 transcription: Cyclin D1 protein level in dBT114 cells; assay type: cell-based, human; conditions: various concentrations, 24 hours (FIG. 3)
Experimental: as §4, §5

T1 sequence (P40763 whole entry): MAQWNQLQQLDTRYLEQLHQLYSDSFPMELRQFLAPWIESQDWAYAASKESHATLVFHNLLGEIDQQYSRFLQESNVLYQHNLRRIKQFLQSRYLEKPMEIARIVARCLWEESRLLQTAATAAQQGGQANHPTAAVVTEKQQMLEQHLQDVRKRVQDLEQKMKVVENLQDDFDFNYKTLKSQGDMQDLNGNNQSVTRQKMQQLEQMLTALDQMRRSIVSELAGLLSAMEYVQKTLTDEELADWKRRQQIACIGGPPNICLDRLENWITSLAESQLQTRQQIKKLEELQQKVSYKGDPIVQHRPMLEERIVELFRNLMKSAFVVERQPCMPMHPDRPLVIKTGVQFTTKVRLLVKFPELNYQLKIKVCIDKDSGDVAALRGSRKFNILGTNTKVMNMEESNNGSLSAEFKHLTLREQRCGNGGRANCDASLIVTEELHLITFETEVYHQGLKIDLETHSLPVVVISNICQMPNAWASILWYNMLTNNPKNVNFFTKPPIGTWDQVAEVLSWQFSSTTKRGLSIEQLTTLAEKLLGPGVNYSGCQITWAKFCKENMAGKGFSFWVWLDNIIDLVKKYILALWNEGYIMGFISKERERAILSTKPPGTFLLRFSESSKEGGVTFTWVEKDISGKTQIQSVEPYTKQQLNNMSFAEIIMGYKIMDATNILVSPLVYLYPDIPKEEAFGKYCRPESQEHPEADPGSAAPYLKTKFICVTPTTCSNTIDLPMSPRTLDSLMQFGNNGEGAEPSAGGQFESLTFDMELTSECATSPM
T2 sequence (P42227 whole entry): as the sequence (P40763 whole entry) above, with E760D counted along it

## CNC(=O)COCC(=O)Nc1ccc(Cc2cc(-c3ccc(Br)cc3)n(-c3ccc(S(N)(=O)=O)cc3)n2)cc1 [C3, 3-[{2-[(Methylaminocarbonyl)-methoxy]-acetyl}-(4-aminobenzyl)]-5-(4-bromophenyl)-1-(4-aminosulfonylphenyl)-1H-pyrazole]
[1]
  metabolic activity of normal human astrocytes: no clear pattern of increased or decreased metabolic activity
[2]
  dose-dependent inhibition of tumor cell proliferation: dose-dependent inhibition
[2]; dBT114 cells
  effect on tumor cell growth kinetics (confluence): profound effect
STAT3 [3]
  inhibition of STAT3 phosphorylation: potently inhibited; also recorded: blocked
  IC50: 670 nM
  dose dependence of inhibition of IL-6 induced STAT3 phosphorylation: dose-dependent inhibition
Bcl-2
  Bcl-2 protein level: decreased Bcl-2 in a dose dependent fashion; also recorded: dose-dependent reduction
MAP kinase
  effect on levels of activated MAP kinase: no effect
STAT3 [4]
  inhibition of STAT3 phosphorylation: potently inhibited; also recorded: blocked
PARP
  cleavage of PARP (induction of apoptosis): cleavage of PARP; also recorded: increase
dBT114 cells
  cell death through apoptosis (Annexin V/PI flow cytometry): dose-dependent apoptosis

## CC(=O)Nc1ccc(Cc2cc(-c3ccc(Br)cc3)n(-c3ccc(S(N)(=O)=O)cc3)n2)cc1 [C4, 3-(4-Acetamidebenzyl)-5-(4-bromophenyl)-1-(4-aminosulfonylphenyl)-1H-pyrazole]
[2]
  dose-dependent inhibition of tumor cell proliferation: dose-dependent inhibition
STAT3 [3]
  IC50: > 50000 nM
DAOY cells [5]
  cell death through apoptosis (Annexin V/PI flow cytometry): cell death through apoptosis
HCT116 cells
  cell death through apoptosis (Annexin V/PI flow cytometry): cell death through apoptosis
dBT114 cells
  cell death through apoptosis (Annexin V/PI flow cytometry): cell death through apoptosis; also recorded: dose-dependent apoptosis
[6]
  metabolic activity of normal human astrocytes: no clear pattern of increased or decreased metabolic activity

## CC(C)CCc1cc(-c2ccc(Br)cc2)n(-c2ccc(S(N)(=O)=O)cc2)n1 [C6, 5-(4-Bromophenyl)-3-(isopentyl)-1-(4-aminosulfonylphenyl)-1H-pyrazole]
[2]
  dose-dependent inhibition of tumor cell proliferation: dose-dependent inhibition; also recorded: dose dependent inhibition
[2]; dBT114 cells
  effect on tumor cell growth kinetics (confluence): profound effect
[2]; dBT114 cells, C6 fixed 25 μM with increasing concentrations of TMZ (FIG. 7)
  cellular proliferation, combination with temozolomide (TMZ): dose-dependent decrease
STAT3 [3]
  IC50: 13400 nM
DAOY cells [5]
  cell death through apoptosis (Annexin V/PI flow cytometry): cell death through apoptosis
HCT116 cells
  cell death through apoptosis (Annexin V/PI flow cytometry): cell death through apoptosis
[7]
  dose-dependent inhibition of tumor cell proliferation: dose dependent inhibition
[8]
  dose-dependent inhibition of tumor cell proliferation: dose dependent inhibition
dBT114 cells; all cell lines tested (BT114, DAOY, HCT)
  relative potency in causing cell death: more potent than C4
dBT114 cells
  cell death through apoptosis (Annexin V/PI flow cytometry): cell death through apoptosis; also recorded: dose-dependent apoptosis
[6]
  metabolic activity of normal human astrocytes: no clear pattern of increased or decreased metabolic activity

## CC(C)CCc1cc(-c2ccccc2)nn1-c1ccc(S(N)(=O)=O)cc1 [C9, 3-(Phenyl)-5-(isopentyl)-1-(4-aminosulfonylphenyl)-1H-pyrazole]
DAOY cells [9]
  uptake and fluorescence in living cells: strong uptake and fluorescence

## NS(=O)(=O)c1ccc(-n2nc(Cc3ccc(NC(=O)COCC(=O)NCCCCCCCNC(=O)COCC(=O)Nc4ccc(Cc5cc(-c6ccc(Br)cc6)n(-c6ccc(S(N)(=O)=O)cc6)n5)cc4)cc3)cc2-c2ccc(Br)cc2)cc1 [C10, 3-[{2-[(7-{2-[((4-((5-(4-Bromophenyl)-1-(4-sulfamoylphenyl)-1H-pyrazol-3-yl)methyl)phenyl)aminocarbonyl)-methoxy]-acetylamino}-heptylaminocarbonyl)-methoxy]-acetyl}-(4-aminobenzyl)]-5-(4-bromophenyl)-1-(4-aminosulfonylphenyl)-1H-pyrazole]
[1]
  metabolic activity of normal human astrocytes: no clear pattern of increased or decreased metabolic activity
STAT3 [3]
  inhibition of STAT3 phosphorylation: potently inhibited; also recorded: blocked
  IC50: 207 nM
  dose dependence of inhibition of IL-6 induced STAT3 phosphorylation: dose-dependent inhibition
Bcl-2
  Bcl-2 protein level: dose-dependent reduction
Cyclin D1
  Cyclin D1 protein level: decreased Cyclin D1 levels in a dose dependent fashion
MAP kinase
  effect on levels of activated MAP kinase: no effect
STAT3 [4]
  inhibition of STAT3 phosphorylation: potently inhibited; also recorded: blocked
PARP
  cleavage of PARP (induction of apoptosis): increase
dBT114 cells
  cell death through apoptosis (Annexin V/PI flow cytometry): dose-dependent apoptosis
